Our source for the Kd values is ChEMBL document CHEMBL3991601, “The target landscape of clinical kinase drugs” (Science, 2017).

Structures are written as SMILES. pKd: −log10 of the molar value. Calls of active or inactive are those of the source. A value given as a limit tells only on which side of the number the result lay.

One may read the Kd as the constant that tells how readily two partners part at equilibrium. In general, pKd refers to the negative decadic logarithm of the Kd, by convention in mol/L.

One assay addresses T1, ADP/ATP translocase 2 (Homo sapiens, UniProt P05141).
T1 sequence (P05141 whole entry): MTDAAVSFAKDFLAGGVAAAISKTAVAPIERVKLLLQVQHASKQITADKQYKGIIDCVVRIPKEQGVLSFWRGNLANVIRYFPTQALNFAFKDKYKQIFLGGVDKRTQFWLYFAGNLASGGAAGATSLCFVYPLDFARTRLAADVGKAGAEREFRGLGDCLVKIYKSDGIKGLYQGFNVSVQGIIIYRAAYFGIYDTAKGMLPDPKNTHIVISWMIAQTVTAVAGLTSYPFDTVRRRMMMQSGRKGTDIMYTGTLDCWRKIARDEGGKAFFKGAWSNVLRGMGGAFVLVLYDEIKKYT

The target in a further assay is Midasin (Homo sapiens, UniProt Q9NU22).
For assay [1], the target named is Glycogen synthase kinase-3 alpha (Homo sapiens, UniProt P49840).
Chain of Glycogen synthase kinase-3 alpha (P49840 whole entry): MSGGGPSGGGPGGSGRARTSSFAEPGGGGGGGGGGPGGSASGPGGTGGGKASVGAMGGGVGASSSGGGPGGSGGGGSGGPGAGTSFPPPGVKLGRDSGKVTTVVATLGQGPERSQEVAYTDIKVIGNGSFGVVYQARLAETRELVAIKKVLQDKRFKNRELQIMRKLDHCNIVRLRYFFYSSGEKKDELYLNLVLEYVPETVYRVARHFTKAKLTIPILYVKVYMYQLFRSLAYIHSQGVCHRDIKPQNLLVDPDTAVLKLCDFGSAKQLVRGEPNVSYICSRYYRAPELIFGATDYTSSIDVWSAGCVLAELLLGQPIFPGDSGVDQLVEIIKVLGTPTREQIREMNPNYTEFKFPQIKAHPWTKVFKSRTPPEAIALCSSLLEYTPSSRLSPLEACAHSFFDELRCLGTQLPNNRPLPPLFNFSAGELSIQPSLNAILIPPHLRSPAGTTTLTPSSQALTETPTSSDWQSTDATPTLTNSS
Assay [2] concerns the target Ribosomal protein S6 kinase alpha-3 (Homo sapiens, UniProt P51812).
Assay [3] has as its target T2, Beta-adrenergic receptor kinase 1 (Homo sapiens, UniProt P25098).
T2 sequence (P25098 whole entry): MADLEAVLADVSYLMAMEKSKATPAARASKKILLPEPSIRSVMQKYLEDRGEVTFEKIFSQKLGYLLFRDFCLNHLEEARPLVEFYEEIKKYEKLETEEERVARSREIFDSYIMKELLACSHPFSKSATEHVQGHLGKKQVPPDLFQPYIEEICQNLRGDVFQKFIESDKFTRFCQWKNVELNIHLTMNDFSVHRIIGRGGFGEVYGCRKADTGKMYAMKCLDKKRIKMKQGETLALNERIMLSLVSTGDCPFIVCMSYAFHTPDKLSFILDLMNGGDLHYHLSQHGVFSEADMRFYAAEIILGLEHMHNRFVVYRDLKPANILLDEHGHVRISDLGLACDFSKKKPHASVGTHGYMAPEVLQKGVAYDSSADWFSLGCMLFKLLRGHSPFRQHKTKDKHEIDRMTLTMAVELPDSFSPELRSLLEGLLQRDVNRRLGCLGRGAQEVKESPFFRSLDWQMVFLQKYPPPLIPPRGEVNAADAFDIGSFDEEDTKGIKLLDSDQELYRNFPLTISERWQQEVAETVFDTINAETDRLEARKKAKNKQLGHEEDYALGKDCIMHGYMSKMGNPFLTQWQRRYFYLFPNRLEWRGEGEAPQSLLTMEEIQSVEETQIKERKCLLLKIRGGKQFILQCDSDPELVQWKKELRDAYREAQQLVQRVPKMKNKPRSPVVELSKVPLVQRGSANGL

Assay [4] has as its target Tyrosine-protein kinase Lck (Homo sapiens, UniProt P06239).
Note: in the data inactive means no Kd found up to 30 µM.

Chain of Ribosomal protein S6 kinase alpha-3 (P51812 whole entry): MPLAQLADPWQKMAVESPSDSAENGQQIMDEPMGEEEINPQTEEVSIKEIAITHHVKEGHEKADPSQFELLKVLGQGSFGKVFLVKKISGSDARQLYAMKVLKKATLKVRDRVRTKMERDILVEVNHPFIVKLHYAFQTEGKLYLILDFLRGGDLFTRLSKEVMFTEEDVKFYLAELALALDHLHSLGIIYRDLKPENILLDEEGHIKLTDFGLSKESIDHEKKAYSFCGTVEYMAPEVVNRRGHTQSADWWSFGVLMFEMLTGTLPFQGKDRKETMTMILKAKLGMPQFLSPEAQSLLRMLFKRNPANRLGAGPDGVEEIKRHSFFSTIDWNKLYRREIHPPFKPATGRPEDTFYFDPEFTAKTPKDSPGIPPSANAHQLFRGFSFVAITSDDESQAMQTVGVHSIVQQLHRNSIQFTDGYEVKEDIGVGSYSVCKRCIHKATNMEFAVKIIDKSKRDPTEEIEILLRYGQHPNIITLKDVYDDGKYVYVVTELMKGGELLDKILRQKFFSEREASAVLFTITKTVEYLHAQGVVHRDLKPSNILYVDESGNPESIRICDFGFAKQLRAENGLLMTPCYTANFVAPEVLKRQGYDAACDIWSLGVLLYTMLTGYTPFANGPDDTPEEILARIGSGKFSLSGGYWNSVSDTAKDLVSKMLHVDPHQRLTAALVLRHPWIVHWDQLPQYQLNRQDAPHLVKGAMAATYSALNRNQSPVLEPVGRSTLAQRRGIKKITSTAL
Chain of Tyrosine-protein kinase Lck (P06239 whole entry): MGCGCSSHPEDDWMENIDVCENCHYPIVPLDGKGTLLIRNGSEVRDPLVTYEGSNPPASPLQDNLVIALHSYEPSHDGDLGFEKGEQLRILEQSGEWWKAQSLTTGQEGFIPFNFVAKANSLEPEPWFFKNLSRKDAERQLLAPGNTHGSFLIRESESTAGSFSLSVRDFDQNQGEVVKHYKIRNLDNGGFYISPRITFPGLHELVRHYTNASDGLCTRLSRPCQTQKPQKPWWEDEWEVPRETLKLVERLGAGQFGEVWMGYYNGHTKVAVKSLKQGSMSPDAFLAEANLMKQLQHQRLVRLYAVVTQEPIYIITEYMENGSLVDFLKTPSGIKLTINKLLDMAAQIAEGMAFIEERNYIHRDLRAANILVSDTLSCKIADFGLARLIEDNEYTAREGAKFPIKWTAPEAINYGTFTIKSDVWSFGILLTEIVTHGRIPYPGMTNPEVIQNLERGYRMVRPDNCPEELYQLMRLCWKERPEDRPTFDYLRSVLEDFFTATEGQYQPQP

With `C[C@@H](Oc1cc(C(=O)Nc2ccc(C(=O)N3CCN(C)CC3)cc2)nnc1N)c1c(Cl)ccc(F)c1Cl`, the Kd (on ADP/ATP translocase 2; on Midasin; in assay [1]; in assay [2]; in assay [3]; in assay [4]) was > 30 µM (inactive) in each case.
Regarding `C[C@H]1CNCCCN1S(=O)(=O)c1cccc2cncc(F)c12`, the Kd (on ADP/ATP translocase 2; at Midasin; in assay [1]; in assay [2]; in assay [3]; in assay [4]) was > 30 µM (inactive) in each case.
With `CCNC(=O)C#Cc1ccc2c(c1)NC(=O)/C2=C(\Nc1ccc(CN(C)C)cc1)c1ccccc1`, the Kd on ADP/ATP translocase 2 is > 30 µM (inactive); in assay [1] it was > 30 µM (inactive); in assay [2], 0.734 µM (active); in assay [3] it was > 30 µM (inactive); in assay [4], 0.115 µM (active). Besides, the pKd at Midasin is 5.88.
As to `Cc1nc(NC(=O)N2CCC[C@H]2C(N)=O)sc1-c1ccnc(C(C)(C)C(F)(F)F)c1` [ALPELISIB], the Kd (at ADP/ATP translocase 2; on Midasin; in assay [1]; in assay [2]; in assay [3]; in assay [4]) was > 30 µM (inactive) each time.
Turning to `COc1cc([C@@H]2c3cc4c(cc3[C@H](O)[C@H]3COC(=O)[C@@H]23)OCO4)cc(OC)c1OC` [AXL-1717], the Kd (at ADP/ATP translocase 2; at Midasin; in assay [1]; in assay [2]; in assay [3]; in assay [4]) was > 30 µM (inactive) throughout.
Consider `CCn1c(C(=O)N(C2CC2)C2CC2)cc2c3c(ncn3C)c(Nc3cc(C)n(C)n3)nc21` [BMS-911543], for which the Kd (at ADP/ATP translocase 2; on Midasin; in assay [1]; in assay [2]; in assay [3]; in assay [4]) was > 30 µM (inactive) each time.
As to `Cn1cc(C2=C(c3cn(C4CCN(Cc5ccccn5)CC4)c4ccccc34)C(=O)NC2=O)c2ccccc21` [ENZASTAURIN], the Kd (on ADP/ATP translocase 2; on Midasin; in assay [3]) was > 30 µM (inactive) in each case.
As for `Cc1nc2cc(-n3ncc(C(=O)c4cc5ccccc5[nH]4)c3N)ccc2[nH]1` [FGFR INHIBITOR DEBIO 1347], the Kd (on ADP/ATP translocase 2; at Midasin; in assay [1]; in assay [2]; in assay [3]; in assay [4]) was > 30 µM (inactive) in each case.
As to `O=C(Nc1cc(C(F)(F)F)cc(C(F)(F)F)c1)c1cc(Cl)ccc1O` [IMD-0354], the Kd (on ADP/ATP translocase 2; on Midasin; in assay [2]; in assay [3]; in assay [4]) was > 30 µM (inactive) each time.
For `CNC(=O)c1nn(C)c2c1C(C)(C)Cc1cnc(Nc3ccc(N4CCN(C)CC4)cc3)nc1-2` [MILCICLIB], the Kd (on ADP/ATP translocase 2; on Midasin; in assay [1]; in assay [2]; in assay [3]) was > 30 µM (inactive) throughout.
For `CC(=O)NCC(=O)N1[C@@H]2CC[C@H]1c1ccc(Nc3ncc(C(F)(F)F)c(NC4CCC4)n3)cc12` [PF-03814735], the Kd (at ADP/ATP translocase 2; on Midasin; in assay [3]) was > 30 µM (inactive) in each case.
In the case of `N#CC[C@H](C1CCCC1)n1cc(-c2ncnc3[nH]ccc23)cn1` [RUXOLITINIB], the Kd (at ADP/ATP translocase 2; at Midasin; in assay [3]) was > 30 µM (inactive) in each case.
